Columns and labels:
hGPR17L [1] = biological target: T1, hGPR17L (Homo sapiens, UniProt Q13304); assay: Calcium mobilization assay; format: cell-based; details: for antagonist activity at GPR17: data not shown
hGPR17L [2] = biological target: T1, hGPR17L; assay: cAMP accumulation HTRF assay
hGPR17L [3] = biological target: T1, hGPR17L; assay: GLP-1 secretion assay in GLUTag cells expressing hGPR17L; format: cell-based; details: 6.3 μM MDL; for attenuation of MDL-mediated inhibition of GLP-1 secretion: 10 μM compound, 10 μM forskolin and 10 μM IBMX
hGPR17L [4] = biological target: T1, hGPR17L; assay: cAMP signaling in GLUTag cells expressing hGPR17L; format: cell-based; details: for attenuation of MDL-mediated inhibition of forskolin-stimulated cAMP: 10 μM compound, 100 nM MDL, 10 μM forskolin
FGFR1 = FGFR1 (Homo sapiens, UniProt P11362); assay: PathHunter U2OS FGFR1 functional counter assay; format: cell-based; details: dose response
hGPR17 = hGPR17 (Homo sapiens, UniProt Q13304); assay: Cisbio HTRF β-arrestin recruitment assay, Schild analysis; format: cell-based; details: Table 1
GHSR1a = GHSR1a (Homo sapiens, UniProt Q92847); assay: PathHunter U2OS GHSR1a β-arrestin counter assay; format: cell-based; details: dose response
hCysLTR2 = biological target: T2, hCysLTR2 (Homo sapiens, UniProt Q9NS75); assay: Calcium mobilization, Neuro-2a cells transiently transfected with hCysLTR2; format: cell-based; details: 10 μM compound; 50 nM LTD4
T2 sequence (Q9NS75 1-346): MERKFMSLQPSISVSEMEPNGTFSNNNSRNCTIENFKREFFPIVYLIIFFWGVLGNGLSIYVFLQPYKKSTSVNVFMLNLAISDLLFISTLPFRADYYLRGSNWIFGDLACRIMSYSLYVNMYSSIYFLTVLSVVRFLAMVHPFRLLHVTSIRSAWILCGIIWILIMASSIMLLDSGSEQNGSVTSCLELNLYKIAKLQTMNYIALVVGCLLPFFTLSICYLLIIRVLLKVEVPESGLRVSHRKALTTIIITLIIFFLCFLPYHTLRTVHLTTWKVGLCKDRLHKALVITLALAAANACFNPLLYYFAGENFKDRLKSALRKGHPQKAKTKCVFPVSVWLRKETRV

GPR17 = details: cited from earlier work
GPR17 (long isoform) = GPR17 (long isoform) (Homo sapiens, UniProt Q13304); assay: PathHunter GPR17 β-arrestin recruitment assay; format: cell-based; details: IC50 (antagonist mode), assay development; stimulated with 2 μM MDL (~EC80)
[5] = biological target: N-methyl-D-aspartate (NMDA) receptors, glycine binding site; details: cited from earlier work
hP2RY1 = hP2RY1 (Homo sapiens, UniProt P47900); assay: Calcium mobilization, Neuro-2a cells transiently transfected with hP2RY1; format: cell-based; details: 10 μM compound (300 μM MRS2179); 8 nM 2MeSADP
hCysLTR1 = biological target: T3, hCysLTR1 (Homo sapiens, UniProt Q9Y271); assay: Calcium mobilization, Neuro-2a cells transiently transfected with hCysLTR1; format: cell-based; details: 10 μM compound; 50 nM LTD4
T3 sequence (Q9Y271 1-337): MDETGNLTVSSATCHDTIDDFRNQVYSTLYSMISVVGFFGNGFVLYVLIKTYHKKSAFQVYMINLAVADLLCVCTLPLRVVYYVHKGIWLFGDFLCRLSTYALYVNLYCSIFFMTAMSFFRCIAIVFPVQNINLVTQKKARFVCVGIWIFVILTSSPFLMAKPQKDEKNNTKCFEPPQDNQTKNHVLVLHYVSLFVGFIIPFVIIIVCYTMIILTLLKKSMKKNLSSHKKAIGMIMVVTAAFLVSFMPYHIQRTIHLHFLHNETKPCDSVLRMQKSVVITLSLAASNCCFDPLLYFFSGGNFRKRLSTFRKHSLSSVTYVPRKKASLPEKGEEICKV

T1 sequence (Q13304 whole entry): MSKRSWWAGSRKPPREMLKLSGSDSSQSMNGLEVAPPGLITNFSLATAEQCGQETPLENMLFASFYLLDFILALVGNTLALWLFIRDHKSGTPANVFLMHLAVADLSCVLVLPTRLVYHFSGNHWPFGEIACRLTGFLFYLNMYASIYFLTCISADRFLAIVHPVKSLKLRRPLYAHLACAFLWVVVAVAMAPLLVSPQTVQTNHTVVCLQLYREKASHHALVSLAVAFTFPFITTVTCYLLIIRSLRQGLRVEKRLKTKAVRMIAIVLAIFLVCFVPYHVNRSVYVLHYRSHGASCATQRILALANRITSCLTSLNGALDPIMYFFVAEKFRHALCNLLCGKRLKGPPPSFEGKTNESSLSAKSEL
FGFR1, sequence (P11362 22-822): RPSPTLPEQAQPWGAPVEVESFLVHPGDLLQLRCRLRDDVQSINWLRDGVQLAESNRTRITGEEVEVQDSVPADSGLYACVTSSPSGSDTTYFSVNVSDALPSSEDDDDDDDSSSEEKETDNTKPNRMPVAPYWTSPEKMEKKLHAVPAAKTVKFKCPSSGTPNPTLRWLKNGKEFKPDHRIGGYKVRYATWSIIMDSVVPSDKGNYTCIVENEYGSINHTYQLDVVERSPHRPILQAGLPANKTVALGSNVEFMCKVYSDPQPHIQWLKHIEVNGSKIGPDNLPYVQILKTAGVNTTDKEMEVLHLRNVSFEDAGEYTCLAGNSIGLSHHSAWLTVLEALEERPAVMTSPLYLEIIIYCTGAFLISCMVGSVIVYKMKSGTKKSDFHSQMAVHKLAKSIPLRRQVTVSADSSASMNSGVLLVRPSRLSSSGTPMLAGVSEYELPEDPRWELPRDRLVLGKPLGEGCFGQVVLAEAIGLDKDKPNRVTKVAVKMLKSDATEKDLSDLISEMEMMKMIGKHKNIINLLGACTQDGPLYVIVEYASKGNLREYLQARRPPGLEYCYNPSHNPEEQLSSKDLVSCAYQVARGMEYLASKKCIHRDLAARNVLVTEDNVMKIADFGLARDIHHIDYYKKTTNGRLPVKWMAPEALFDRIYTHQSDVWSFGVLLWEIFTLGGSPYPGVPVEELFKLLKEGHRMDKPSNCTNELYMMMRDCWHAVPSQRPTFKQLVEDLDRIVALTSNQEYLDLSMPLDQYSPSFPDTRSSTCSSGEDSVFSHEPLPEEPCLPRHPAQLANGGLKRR
hP2RY1, sequence (P47900 whole entry): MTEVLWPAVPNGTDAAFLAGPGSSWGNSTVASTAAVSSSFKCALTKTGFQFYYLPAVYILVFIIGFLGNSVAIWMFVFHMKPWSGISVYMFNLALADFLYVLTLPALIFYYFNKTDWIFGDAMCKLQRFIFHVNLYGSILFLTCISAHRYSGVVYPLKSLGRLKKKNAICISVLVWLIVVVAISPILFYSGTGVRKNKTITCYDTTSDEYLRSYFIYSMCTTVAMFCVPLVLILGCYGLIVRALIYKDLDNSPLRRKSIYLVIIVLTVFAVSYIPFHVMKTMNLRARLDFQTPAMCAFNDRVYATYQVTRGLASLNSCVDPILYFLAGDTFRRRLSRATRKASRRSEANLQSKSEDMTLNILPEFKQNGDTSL
hGPR17, sequence (Q13304 whole entry): as the sequence (Q13304 whole entry) above
GPR17 (long isoform), sequence (Q13304 whole entry, canonical isoform): as the sequence (Q13304 whole entry) above
GHSR1a, sequence (Q92847 whole entry): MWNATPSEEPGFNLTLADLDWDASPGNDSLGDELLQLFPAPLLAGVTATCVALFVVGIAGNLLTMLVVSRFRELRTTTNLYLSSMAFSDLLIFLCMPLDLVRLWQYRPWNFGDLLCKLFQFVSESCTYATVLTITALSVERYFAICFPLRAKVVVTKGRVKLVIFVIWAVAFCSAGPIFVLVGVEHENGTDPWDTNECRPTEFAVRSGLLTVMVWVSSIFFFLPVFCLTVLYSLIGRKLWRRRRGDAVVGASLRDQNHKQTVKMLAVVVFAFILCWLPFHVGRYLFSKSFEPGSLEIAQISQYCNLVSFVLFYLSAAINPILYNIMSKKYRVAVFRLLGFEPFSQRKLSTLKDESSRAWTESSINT

CC(C)[C@@H](O)CC[C@@H](C)[C@H]1CC[C@H]2[C@@H]3CC=C4C[C@@H](O)CC[C@]4(C)[C@H]3CC[C@]12C [24S-HC, 24(S)-hydroxycholesterol, reference compound]
activation of GPR17 or potentiation of MDL (hGPR17L [1]; calcium mobilization assay): not able to confirm | activation of GPR17 or potentiation of MDL (hGPR17L [2]; cAMP accumulation assay): not able to confirm

COc1ccc(C(=O)NC2CCCc3c2[nH]c2c(Cl)cccc32)cc1OC (stereo not drawn) [Compd 1, N-(8-Chloro-2,3,4,9-tetrahydro-1H-carbazol-1-yl)-3,4-dimethoxybenzamide]
attenuation of MDL-mediated inhibition of GLP-1 secretion (hGPR17L [3]): significantly attenuated | attenuation of MDL-mediated inhibition of forskolin-stimulated cAMP (hGPR17L [4]): significantly attenuated | Emax (hGPR17L [1]; 1321-N1, read-out: % Efficacy Avg ± SEM): 109 ± 3.38% | IC50 (hGPR17L [1]; Calcium Assay IC50(μM) Avg ± SEM, Table 2, reported only when efficacy ≥75%): 5.47 ± 0.3 µM | activity in FGFR1 functional counter assay (FGFR1): no activity | β-arrestin Schild Slope (95% CI) (hGPR17): 1.13 (0.96 – 1.30) | activity in GHSR1a β-arrestin counter assay (GHSR1a): no activity

O=C(O)c1ccc(OCCCc2ccc(OCCCCOC3CCCCC3)cc2)c(C(=O)NC2CCCC(C(=O)O)C2)c1 (stereo not drawn) [HAMI]
block of CYSLTR2 activation (hCysLTR2): antagonized | IC50 (GPR17): single digit micromolar range | block of MDL-stimulated receptor activation of GPR17 (GPR17): completely | attenuation of MDL-mediated inhibition of GLP-1 secretion (hGPR17L [3]): significantly attenuated | attenuation of MDL-mediated inhibition of forskolin-stimulated cAMP (hGPR17L [4]): significantly attenuated | IC50 (hGPR17L [1]; IC50 (antagonist mode), assay development, stimulated with […] MDL (~EC80)): 8.1 µM | antagonist activity at GPR17 (hGPR17L [1]; calcium mobilization assay): full antagonist activity | IC50 (GPR17 (long isoform)): 8.2 µM | IC50 (hGPR17L [2]; IC50 (antagonist mode), assay development, 30 nM MDL (EC80), 1 μM forskolin): 1.5 µM | IC50 (hGPR17L [2]; IC50, cAMP HTRF assay, purified re-purchased/re-synthesized compounds reassessed): 10 µM

O=C(O)CCc1c(C(=O)O)[nH]c2cc(Cl)cc(Cl)c12 [MDL, 3-(2-carboxyethyl)-4,6-dichloro-1H-indole-2-carboxylic acid]
Ki [5]: 0.14 µM | forskolin and IBMX-stimulated GLP-1 secretion after GPR17 activation (hGPR17L [3]): 50.1 ± 4.6 pM | reduction of forskolin and IBMX-stimulated GLP-1 secretion (hGPR17L [3]): 33 ± 8% | forskolin-stimulated cAMP after GPR17 activation (hGPR17L [4]; forskolin plus MDL): 3.5 ± 0.18 nM | inhibition of forskolin stimulated cAMP (hGPR17L [4]; forskolin plus MDL): 29 ± 3% | EC50 (hGPR17L [1]): 0.28 µM | EC50 (hGPR17L [2]): 0.0019 µM

CNc1ncnc2c1ncn2[C@H]1C[C@H](OP(=O)(O)O)[C@@H](COP(=O)(O)O)O1 [MRS2179]
block of P2RY1 activation (hP2RY1): antagonized

O=C(Nc1cccc2c(=O)cc(-c3nnn[nH]3)oc12)c1ccc(OCCCCc2ccccc2)cc1 [pranlukast]
block of MDL-stimulated receptor activation of GPR17 (GPR17): completely | antagonist activity at GPR17 (hGPR17L [1]; calcium mobilization assay): full antagonist activity | block of CYSLTR1 activation (hCysLTR1): antagonized

Reference: paper PMC12459614 (European journal of medicinal chemistry, 2025)
